Test results as given in ChEMBL document CHEMBL2057167, “Rapid identification of ETP-46992, orally bioavailable PI3K inhibitor, selective versus mTOR” (Bioorg Med Chem Lett, 2012).
Activity calls are given as the source filed them. The calls are words filed in the database; no cut-off is given here.

Columns and labels:
[1] = target: T1, Phosphatidylinositol 4,5-bisphosphate 3-kinase catalytic subunit alpha isoform (Homo sapiens, UniProt P42336); assay: Inhibition of PI3Kalpha-mediated AKT phosphorylation at Ser473 in human U2OS cells by Western blot analysis; format: cell-based
T1 sequence (P42336 whole entry, canonical isoform): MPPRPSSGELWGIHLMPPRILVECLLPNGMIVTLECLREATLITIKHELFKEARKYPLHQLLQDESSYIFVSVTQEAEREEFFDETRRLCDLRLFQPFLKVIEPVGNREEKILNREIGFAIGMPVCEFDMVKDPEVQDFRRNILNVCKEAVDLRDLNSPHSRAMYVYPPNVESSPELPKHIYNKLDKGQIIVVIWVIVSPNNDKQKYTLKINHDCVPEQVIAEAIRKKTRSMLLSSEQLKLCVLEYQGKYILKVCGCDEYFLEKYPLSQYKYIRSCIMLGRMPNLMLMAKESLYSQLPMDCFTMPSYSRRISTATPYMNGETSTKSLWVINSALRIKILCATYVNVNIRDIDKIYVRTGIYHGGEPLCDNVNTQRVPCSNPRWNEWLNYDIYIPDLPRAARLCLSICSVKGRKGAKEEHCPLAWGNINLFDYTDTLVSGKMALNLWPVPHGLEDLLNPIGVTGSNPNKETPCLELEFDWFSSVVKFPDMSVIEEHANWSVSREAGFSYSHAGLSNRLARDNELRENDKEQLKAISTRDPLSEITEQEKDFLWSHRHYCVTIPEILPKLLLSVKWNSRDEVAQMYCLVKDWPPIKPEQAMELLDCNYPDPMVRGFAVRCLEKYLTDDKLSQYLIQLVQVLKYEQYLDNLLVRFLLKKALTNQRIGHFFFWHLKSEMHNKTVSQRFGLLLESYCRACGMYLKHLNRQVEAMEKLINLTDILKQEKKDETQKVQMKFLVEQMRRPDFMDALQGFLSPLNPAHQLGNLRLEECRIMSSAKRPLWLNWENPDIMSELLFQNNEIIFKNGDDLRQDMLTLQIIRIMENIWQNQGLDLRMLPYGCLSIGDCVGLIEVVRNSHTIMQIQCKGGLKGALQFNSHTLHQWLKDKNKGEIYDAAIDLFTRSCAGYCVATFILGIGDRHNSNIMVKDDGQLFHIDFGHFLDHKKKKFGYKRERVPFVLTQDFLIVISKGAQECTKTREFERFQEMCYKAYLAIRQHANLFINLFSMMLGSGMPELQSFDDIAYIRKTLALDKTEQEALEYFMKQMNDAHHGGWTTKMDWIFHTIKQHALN

[2] = target: T1, Phosphatidylinositol 4,5-bisphosphate 3-kinase catalytic subunit alpha isoform; assay: Inhibition of PI3Kalpha assessed as accumulation of ADP
[3] = target: Serine/threonine-protein kinase mTOR (Homo sapiens, UniProt P42345); assay: Inhibition of mTOR
[4] = target: Phosphatidylinositol 4,5-bisphosphate 3-kinase catalytic subunit gamma isoform (Homo sapiens, UniProt P48736); assay: Inhibition of PI3Kgamma assessed as accumulation of ADP; details: read-out: Ki(app)
Lung = assay: Reduction of [18F]-FDG uptake in GEMM mouse lung tumor model driven by KRasG12V oncogenic mutation lung after 45 mins by PET-CT analysis; format: functional, tissue-based
BT-474 = assay: Antitumor activity against human BT474 cells with PI3Kalpha […] mutated xenografted in MF-1 nude mouse assessed as tumor growth inhibition at 10 mg/kg, po qd for weekly 5 days for 2 weeks; format: functional; details: read-out: GI
[5] = target: Phosphatidylinositol 4,5-bisphosphate 3-kinase catalytic subunit beta isoform (Homo sapiens, UniProt P42338); assay: Inhibition of human PI3Kbeta by HTRF assay; details: read-out: Ki(app)
Phosphatidylinositol 4,5-bisphosphate 3-kinase catalytic subunit beta isoform, sequence (P42338 whole entry, canonical isoform): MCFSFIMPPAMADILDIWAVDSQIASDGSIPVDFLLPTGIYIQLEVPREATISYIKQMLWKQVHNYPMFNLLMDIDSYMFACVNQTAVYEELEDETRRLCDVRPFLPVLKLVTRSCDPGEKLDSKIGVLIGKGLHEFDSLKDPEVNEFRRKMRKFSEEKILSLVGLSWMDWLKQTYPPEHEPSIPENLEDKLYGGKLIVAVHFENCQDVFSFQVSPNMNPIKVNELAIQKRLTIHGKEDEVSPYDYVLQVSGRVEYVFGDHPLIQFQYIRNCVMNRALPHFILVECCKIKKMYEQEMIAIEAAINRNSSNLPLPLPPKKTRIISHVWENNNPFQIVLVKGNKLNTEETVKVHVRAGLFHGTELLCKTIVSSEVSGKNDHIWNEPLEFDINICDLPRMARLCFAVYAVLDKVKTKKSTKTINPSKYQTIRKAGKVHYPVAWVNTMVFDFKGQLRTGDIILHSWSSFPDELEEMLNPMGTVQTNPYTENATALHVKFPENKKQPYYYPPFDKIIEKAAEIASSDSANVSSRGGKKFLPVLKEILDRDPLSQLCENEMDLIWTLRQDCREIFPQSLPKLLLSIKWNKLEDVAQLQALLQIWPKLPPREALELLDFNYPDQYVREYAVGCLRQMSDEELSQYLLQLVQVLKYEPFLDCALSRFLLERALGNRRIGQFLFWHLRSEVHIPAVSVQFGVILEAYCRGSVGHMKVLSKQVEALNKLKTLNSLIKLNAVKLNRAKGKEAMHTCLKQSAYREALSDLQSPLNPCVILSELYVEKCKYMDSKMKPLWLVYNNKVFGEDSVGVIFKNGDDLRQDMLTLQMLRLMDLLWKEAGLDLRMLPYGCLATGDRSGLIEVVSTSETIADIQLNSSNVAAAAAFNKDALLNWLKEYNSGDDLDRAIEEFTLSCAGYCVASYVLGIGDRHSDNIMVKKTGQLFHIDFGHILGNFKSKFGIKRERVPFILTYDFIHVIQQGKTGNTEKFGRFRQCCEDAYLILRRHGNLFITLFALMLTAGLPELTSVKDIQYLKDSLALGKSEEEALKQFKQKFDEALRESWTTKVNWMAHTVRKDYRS

Mus musculus [6] = assay: Down regulation of phosphorylated AKT at S473 level in GEMM mouse lung tumor model driven by KRasG12V oncogenic mutation tumor at 10 mg/kg, po after 1 hr by Western blot analysis; format: functional
Mus musculus [7] = assay: Antitumor activity in GEMM mouse lung tumor model driven by KRasG12V oncogenic mutation assessed as tumor growth inhibition at 25 mg/kg, po qd for weekly 5 days for 3 weeks; format: functional; details: read-out: GI
Mus musculus [8] = species: Mus musculus; assay: Reduction of [18F]-FDG uptake in GEMM mouse lung tumor model driven by KRasG12V oncogenic mutation tumor after 45 mins by PET-CT analysis; format: functional; details: Neoplasm
[9] = target: T2, Phosphatidylinositol 4,5-bisphosphate 3-kinase catalytic subunit delta isoform (Homo sapiens, UniProt O00329); assay: Inhibition of human PI3Kdelta by HTRF assay; details: read-out: Ki(app)
T2 sequence (O00329 whole entry): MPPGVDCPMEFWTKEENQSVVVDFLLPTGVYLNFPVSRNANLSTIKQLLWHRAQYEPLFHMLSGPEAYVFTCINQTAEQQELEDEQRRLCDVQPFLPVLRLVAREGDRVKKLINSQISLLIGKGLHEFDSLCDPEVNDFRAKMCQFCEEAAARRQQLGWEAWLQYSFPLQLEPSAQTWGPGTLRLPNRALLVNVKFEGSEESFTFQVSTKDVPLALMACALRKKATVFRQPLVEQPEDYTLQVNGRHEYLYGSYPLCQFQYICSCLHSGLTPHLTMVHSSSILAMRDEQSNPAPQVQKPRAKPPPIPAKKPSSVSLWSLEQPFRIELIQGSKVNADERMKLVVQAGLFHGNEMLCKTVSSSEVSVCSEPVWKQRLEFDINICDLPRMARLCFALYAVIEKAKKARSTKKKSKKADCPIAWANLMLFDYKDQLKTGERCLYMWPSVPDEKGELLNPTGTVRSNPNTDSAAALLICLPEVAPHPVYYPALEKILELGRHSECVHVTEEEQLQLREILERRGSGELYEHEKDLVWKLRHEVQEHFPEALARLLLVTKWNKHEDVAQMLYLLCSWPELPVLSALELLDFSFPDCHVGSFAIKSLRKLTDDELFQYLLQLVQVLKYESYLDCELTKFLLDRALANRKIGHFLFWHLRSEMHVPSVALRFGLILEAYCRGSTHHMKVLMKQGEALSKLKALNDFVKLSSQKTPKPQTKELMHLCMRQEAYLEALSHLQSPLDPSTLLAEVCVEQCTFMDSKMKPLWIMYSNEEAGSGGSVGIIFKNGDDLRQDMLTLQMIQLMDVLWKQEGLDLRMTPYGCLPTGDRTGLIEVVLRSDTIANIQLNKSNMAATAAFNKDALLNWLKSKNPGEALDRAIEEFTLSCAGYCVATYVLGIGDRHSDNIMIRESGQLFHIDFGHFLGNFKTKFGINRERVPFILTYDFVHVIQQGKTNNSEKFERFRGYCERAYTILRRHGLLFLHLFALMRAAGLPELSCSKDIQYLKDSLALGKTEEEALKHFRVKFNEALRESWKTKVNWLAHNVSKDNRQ

CYP1A2 = target: T3, CYP1A2 (Homo sapiens, UniProt P05177); assay: Inhibition of CYP1A2 at 10 uM; format: ADME
T3 sequence (P05177 whole entry): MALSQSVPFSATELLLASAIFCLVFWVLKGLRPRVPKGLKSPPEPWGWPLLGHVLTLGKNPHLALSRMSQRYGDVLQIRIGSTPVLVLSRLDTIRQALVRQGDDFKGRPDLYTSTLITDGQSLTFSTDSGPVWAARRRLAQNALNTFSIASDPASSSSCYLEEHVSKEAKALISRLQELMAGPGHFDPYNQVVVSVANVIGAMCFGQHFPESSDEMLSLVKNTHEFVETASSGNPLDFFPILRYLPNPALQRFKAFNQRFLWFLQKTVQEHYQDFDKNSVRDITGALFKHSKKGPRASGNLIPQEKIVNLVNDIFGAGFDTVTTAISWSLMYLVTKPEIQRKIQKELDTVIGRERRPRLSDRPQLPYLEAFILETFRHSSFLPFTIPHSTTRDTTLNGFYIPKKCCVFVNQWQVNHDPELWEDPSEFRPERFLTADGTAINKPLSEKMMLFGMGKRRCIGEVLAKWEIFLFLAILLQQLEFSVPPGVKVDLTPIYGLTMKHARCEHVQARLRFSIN

CYP2C9 = CYP2C9 (Homo sapiens, UniProt P11712); assay: Inhibition of CYP2C9 at 10 uM; format: ADME
CYP2C9, sequence (P11712 whole entry): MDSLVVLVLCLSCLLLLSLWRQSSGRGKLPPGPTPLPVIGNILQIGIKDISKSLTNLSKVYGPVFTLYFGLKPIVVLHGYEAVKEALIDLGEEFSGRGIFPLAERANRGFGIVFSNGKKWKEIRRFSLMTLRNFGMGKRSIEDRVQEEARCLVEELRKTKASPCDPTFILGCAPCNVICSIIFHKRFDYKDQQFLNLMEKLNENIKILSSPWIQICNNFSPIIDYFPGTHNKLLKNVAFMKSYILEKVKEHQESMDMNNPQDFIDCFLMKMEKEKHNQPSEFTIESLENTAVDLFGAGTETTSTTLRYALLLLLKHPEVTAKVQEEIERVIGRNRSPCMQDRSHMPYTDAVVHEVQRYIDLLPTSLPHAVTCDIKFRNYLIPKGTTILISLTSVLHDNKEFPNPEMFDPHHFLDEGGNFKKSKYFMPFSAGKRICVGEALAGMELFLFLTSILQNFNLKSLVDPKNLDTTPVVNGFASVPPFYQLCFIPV

MDR1 (P-gp), human [10] = assay: Apparent permeability from apical to basolateral side in MDCK cells over expressing human MDR1 at 2 uM after 150 mins; format: ADME, cell-based, Canis lupus familiaris; details: dog
[11] = Metabolic stability in human liver microsomes assessed as compound remaining at 1 uM after 15 mins; format: ADME, Microsome; details: read-out: Stability
[12] = Metabolic stability in mouse liver microsomes assessed as compound remaining at 1 uM after 15 mins; format: ADME, Microsome; details: read-out: Stability
CYP2D6 = CYP2D6 (Homo sapiens, UniProt P10635); assay: Inhibition of CYP2D6 at 10 uM; format: ADME
CYP2D6, sequence (P10635 whole entry): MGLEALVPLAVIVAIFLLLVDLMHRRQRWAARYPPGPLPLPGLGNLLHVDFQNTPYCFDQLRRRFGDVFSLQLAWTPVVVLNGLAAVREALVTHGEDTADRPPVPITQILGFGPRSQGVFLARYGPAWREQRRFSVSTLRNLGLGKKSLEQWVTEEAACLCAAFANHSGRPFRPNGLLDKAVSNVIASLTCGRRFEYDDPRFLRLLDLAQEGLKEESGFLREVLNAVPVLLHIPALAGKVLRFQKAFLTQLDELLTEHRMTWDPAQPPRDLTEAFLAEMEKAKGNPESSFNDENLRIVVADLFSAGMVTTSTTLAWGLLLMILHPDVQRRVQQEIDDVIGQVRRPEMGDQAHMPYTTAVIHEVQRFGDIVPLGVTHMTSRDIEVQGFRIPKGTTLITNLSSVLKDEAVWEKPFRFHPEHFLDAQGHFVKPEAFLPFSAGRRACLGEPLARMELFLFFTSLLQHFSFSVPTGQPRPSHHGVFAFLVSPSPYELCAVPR

CYP2C19 = CYP2C19 (Homo sapiens, UniProt P33261); assay: Inhibition of CYP2C19 at 10 uM; format: ADME
CYP2C19, sequence (P33261 whole entry): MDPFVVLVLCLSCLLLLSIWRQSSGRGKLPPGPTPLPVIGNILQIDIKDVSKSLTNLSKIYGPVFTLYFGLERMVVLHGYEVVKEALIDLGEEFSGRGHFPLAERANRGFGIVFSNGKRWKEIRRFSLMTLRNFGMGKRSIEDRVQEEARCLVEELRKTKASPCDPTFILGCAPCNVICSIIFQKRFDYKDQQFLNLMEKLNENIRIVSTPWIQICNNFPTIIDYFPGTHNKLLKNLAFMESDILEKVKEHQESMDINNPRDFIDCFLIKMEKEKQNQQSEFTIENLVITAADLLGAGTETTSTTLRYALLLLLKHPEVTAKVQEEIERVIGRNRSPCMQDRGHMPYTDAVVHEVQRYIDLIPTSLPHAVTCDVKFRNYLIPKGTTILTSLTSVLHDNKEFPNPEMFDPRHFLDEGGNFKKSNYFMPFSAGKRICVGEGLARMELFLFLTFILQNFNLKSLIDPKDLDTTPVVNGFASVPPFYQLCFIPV

Homo sapiens = species: Homo sapiens; assay: Selectivity ratio of IC50 for mTOR to IC50 for PI3Kalpha
MDR1 (P-gp), human [13] = assay: Efflux ratio of permeability from basolateral to apical side over apical to basolateral side in MDCK cells over expressing human MDR1 at 2 uM after 150 mins; format: ADME, cell-based, Canis lupus familiaris; details: dog
CYP3A4 = CYP3A4 (Homo sapiens, UniProt P08684); assay: Inhibition of CYP3A4 at 10 uM; format: ADME
CYP3A4, sequence (P08684 whole entry): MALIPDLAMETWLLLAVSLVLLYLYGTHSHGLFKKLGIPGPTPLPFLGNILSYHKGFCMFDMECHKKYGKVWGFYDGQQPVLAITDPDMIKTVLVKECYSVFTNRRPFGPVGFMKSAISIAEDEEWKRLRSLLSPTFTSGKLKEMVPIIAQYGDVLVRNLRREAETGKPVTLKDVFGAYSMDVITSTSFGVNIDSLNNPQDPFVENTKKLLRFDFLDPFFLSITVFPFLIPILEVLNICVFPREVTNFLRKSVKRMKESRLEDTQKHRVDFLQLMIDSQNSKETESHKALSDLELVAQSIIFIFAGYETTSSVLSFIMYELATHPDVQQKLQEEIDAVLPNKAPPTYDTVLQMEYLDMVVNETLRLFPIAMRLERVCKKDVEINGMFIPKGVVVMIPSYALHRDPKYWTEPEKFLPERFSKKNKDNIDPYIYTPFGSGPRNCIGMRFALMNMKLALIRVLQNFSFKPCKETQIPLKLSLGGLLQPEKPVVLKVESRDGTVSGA

Compound | IC50 [1] | IC50 [2] | IC50 [3] | other results
CN(C)CCNC(=O)c1cn2cc(-c3cnc(N)nc3)nc(N3CCOCC3)c2n1 | 30.3 nM | 4.6 nM | > 5000 nM | 
COCCNC(=O)c1cn2cc(-c3cnc(N)nc3)nc(N3CCOCC3)c2n1 | 14 nM | 2.7 nM | 2290 nM | 
CN(C)CCCNC(=O)c1cn2cc(-c3cccc4[nH]ncc34)nc(N3CCOCC3)c2n1 | 429 nM |  |  | 
COCCCNC(=O)c1cn2cc(-c3cnc(N)nc3)nc(N3CCOCC3)c2n1 | 26 nM | 3.2 nM | > 5000 nM | 
Nc1ncc(-c2cn3cc(C(=O)NC4CCOCC4)nc3c(N3CCOCC3)n2)cn1 |  |  | 751 nM | 
COCCNC(=O)c1cn2c(Cl)c(-c3cnc(N)nc3)nc(N3CCOCC3)c2n1 | 35.1 nM | 11.2 nM |  | 
COCCNC(=O)c1nc2c(N3CCOCC3)nc(-c3cnc(N)nc3)cn2c1C |  |  |  | Ki [4]: 62.9 nM; Activity (Lung): Active; inhibition in vivo at 10 mg/kg (BT-474): 58%; Ki [5]: 94.1 nM; Activity (Mus musculus [6]): >70%; inhibition in vivo at 25 mg/kg (Mus musculus [7]): 61%; Activity (Mus musculus [8]): Active; Ki [9]: 8 nM
NC(=O)c1cn2cc(-c3cnc(N)nc3)nc(N3CCOCC3)c2n1 | 1.8 nM | 0.4 nM | 237 nM | inhibition at 10 µM (CYP1A2): 24%; inhibition at 10 µM (CYP2C9): 5%; Papp A→B at 2.5 h, 2 µM (MDR1 (P-gp), human [10]): 15.4 ×10⁻⁶ cm/s; remaining at 0.25 h, 1 µM [11]: 90%; remaining at 0.25 h, 1 µM [12]: 92%; inhibition at 10 µM (CYP2D6): 8%; inhibition at 10 µM (CYP2C19): 13%; Ratio IC50 (Homo sapiens): > 50; efflux ratio at 2.5 h, 2 µM (MDR1 (P-gp), human [13]): 0.9; inhibition at 10 µM (CYP3A4): 17%
CN(C)CCCNC(=O)c1cn2cc(-c3cnc(N)nc3)nc(N3CCOCC3)c2n1 | 8.7 nM | 0.6 nM | > 5000 nM | 
Nc1ncc(-c2cn3cc(C(=O)NCCN4CCOCC4)nc3c(N3CCOCC3)n2)cn1 | 34.3 nM | 10.4 nM | > 5000 nM | 
Nc1ncc(-c2cn3cc(C(=O)N[C@H]4CC[C@H](O)CC4)nc3c(N3CCOCC3)n2)cn1 | 70 nM |  | 989 nM | Ratio IC50 (Homo sapiens): > 50
